Laboratory results taken from patent US20250325517A1, “ORAL DOSAGE FORMS OF ELRAGLUSIB” (Actuate Therapeutics, Inc., priority 2022, published 2025).
“And” between values parts separate entries of the source, which are not always exact repeats. Equal entries are not always repeated. Where two headings read alike, the source gives them in different places. Marks after values point to notes of the source that are not given here.

Experiment: Phase 1 crossover PK study: oral solution fed/fasted vs IV infusion in healthy subjects
Type: in vivo, human
Procedure: This pharmacokinetic (PK) study in healthy subjects was conducted to characterize and compare the PK parameters in plasma following a single intravenous (IV) dose of Elraglusib Injection, Elraglusib Oral Solution after fasting, and Elraglusib Oral Solution after a high-fat meal (fed). The study was intended to assess the potential feasibility of an oral formulation of elraglusib based on systemic exposure being within the biologically active range. In clinical studies conducted to date, elraglusib Injection (10 mg/mL) is administered IV once or twice per week over multiple hours, which requires a significant amount of time and resources by both patients and site personnel. […] See Example 3 above.
The route of administration is by IV infusion after diluting elraglusib for injection with 0.9% Sodium Chloride Injection.
It is a clear, red solution, free of visible particulate matter and a low bioburden liquid dosage form that is self-preserving against microbial growth.
Subjects received a single 3.3 mg/kg dose of each of the following in a randomly assigned order separated by a 2-week period.
During the study, the high fat meal was administered over a period of under 30 minutes (in almost all cases, 28 minutes).
Elraglusib Injection (10 mg/mL) administered as an IV infusion over 60 minutes (concentration in mg/mL and infusion rate in mL/kg/hour could vary depending on the subject's body weight).
PK parameters including AUC, Cmax, Tmax, and t1/2 were analyzed by standard non-compartmental analysis (NCA) methods following each of the elraglusib doses. Log transformed Cmax and AUC parameters in subjects having adequate PK data following at least 1 of the oral and IV doses were used to assess the relative bioavailability of the oral dose (fed and/or fasted) compared to the IV dose.
All efforts were made to obtain the PK samples at the scheduled nominal times relative to dosing. PK samples were assayed using validated analytical methods.

[1] = IV infusion 3.3 mg/kg, human plasma

% extrap Arithmetic Mean [1]: 1.146% | % extrap GMean [1]: 0.7979% | % extrap Median [1]: 1.04% | AUC∞/Dose Arithmetic Mean [1]: 33.79 ng·h/mL/mg | AUC∞/Dose GMean [1]: 32.93 ng·h/mL/mg | AUC∞/Dose Median [1]: 32.7 ng·h/mL/mg | Clast Arithmetic Mean [1]: 3.045 ng/mL | Clast GMean [1]: 2.142 ng/mL | Clast Median [1]: 2.64 ng/mL | Cmax/Dose Arithmetic Mean [1]: 6.756 ng/mL/mg | Cmax/Dose GMean [1]: 6.615 ng/mL/mg | Cmax/Dose Median [1]: 7.02 ng/mL/mg | R^2 Arithmetic Mean [1]: 0.9904 # | R^2 GMean [1]: 0.9903 # | R^2 Median [1]: 0.9964 # | λZ Arithmetic Mean [1]: 0.0397 h⁻¹ | λZ GMean [1]: 0.0372 h⁻¹ | λZ Median [1]: 0.0346 h⁻¹ | oral bioavailability vs IV, geometric means of AUClast or AUC∞ (human, fasted state): 14-21% | oral bioavailability vs IV, geometric means of Cmax (human, fasted state): 5-11% | half-life (human, plasma, 3.3 mg/kg, human, read-out: terminal elimination half-life, rapid clearance subset of subjects): 420 to 660 min | clearance (human, plasma, iv, 3.3 mg/kg, IV infusion): 7.11 mL/min/kg and 519 mL/min | AUC (human, plasma, iv, 3.3 mg/kg, IV infusion 3.3 mg/kg, human plasma, read-out: AUC24 Arithmetic Mean): 6850 ng·h/mL | AUC (human, plasma, iv, 3.3 mg/kg, IV infusion 3.3 mg/kg, human plasma, read-out: AUC24 GMean): 6730 ng·h/mL | AUC (human, plasma, iv, 3.3 mg/kg, IV infusion 3.3 mg/kg, human plasma, read-out: AUC24 Median): 7200 ng·h/mL | AUC (human, plasma, iv, 3.3 mg/kg, IV infusion 3.3 mg/kg, human plasma, read-out: AUC48 Arithmetic Mean): 7590 ng·h/mL | AUC (human, plasma, iv, 3.3 mg/kg, IV infusion 3.3 mg/kg, human plasma, read-out: AUC48 GMean): 7450 ng·h/mL | AUC (human, plasma, iv, 3.3 mg/kg, IV infusion 3.3 mg/kg, human plasma, read-out: AUC48 Median): 7980 ng·h/mL | AUC (human, plasma, iv, 3.3 mg/kg, IV infusion 3.3 mg/kg, human plasma, read-out: AUC72 Arithmetic Mean): 7840 ng·h/mL | AUC (human, plasma, iv, 3.3 mg/kg, IV infusion 3.3 mg/kg, human plasma, read-out: AUC72 GMean): 7690 ng·h/mL | AUC (human, plasma, iv, 3.3 mg/kg, IV infusion 3.3 mg/kg, human plasma, read-out: AUC72 Median): 8190 ng·h/mL | AUC (human, plasma, iv, 3.3 mg/kg, IV infusion 3.3 mg/kg, human plasma, read-out: AUC96 Arithmetic Mean): 7980 ng·h/mL | AUC (human, plasma, iv, 3.3 mg/kg, IV infusion 3.3 mg/kg, human plasma, read-out: AUC96 GMean): 7810 ng·h/mL | AUC (human, plasma, iv, 3.3 mg/kg, IV infusion 3.3 mg/kg, human plasma, read-out: AUC96 Median): 8250 ng·h/mL | AUC(0-t) (human, plasma, iv, 3.3 mg/kg, IV infusion 3.3 mg/kg, human plasma, read-out: AUClast Arithmetic Mean): 7970 ng·h/mL | AUC(0-t) (human, plasma, iv, 3.3 mg/kg, IV infusion 3.3 mg/kg, human plasma, read-out: AUClast GMean): 7810 ng·h/mL | AUC(0-t) (human, plasma, iv, 3.3 mg/kg, IV infusion 3.3 mg/kg, human plasma, read-out: AUClast Median): 8250 ng·h/mL | AUC(0-inf) (human, plasma, iv, 3.3 mg/kg, IV infusion 3.3 mg/kg, human plasma, read-out: AUC∞ Arithmetic Mean): 8070 ng·h/mL | AUC(0-inf) (human, plasma, iv, 3.3 mg/kg, IV infusion 3.3 mg/kg, human plasma, read-out: AUC∞ GMean): 7900 ng·h/mL | AUC(0-inf) (human, plasma, iv, 3.3 mg/kg, IV infusion 3.3 mg/kg, human plasma, read-out: AUC∞ Median): 8260 ng·h/mL | Cmax (human, plasma, iv, 3.3 mg/kg, IV infusion 3.3 mg/kg, human plasma, read-out: Cmax Arithmetic Mean): 1600 ng/mL | Cmax (human, plasma, iv, 3.3 mg/kg, IV infusion 3.3 mg/kg, human plasma, read-out: Cmax GMean): 1590 ng/mL | Cmax (human, plasma, iv, 3.3 mg/kg, IV infusion 3.3 mg/kg, human plasma, read-out: Cmax Median): 1570 ng/mL | Tmax (human, plasma, iv, 3.3 mg/kg, IV infusion 3.3 mg/kg, human plasma, read-out: Tmax Arithmetic Mean): 1.22 h | Tmax (human, plasma, iv, 3.3 mg/kg, IV infusion 3.3 mg/kg, human plasma, read-out: Tmax GMean): 1.13 h | Tmax (human, plasma, iv, 3.3 mg/kg, IV infusion 3.3 mg/kg, human plasma, read-out: Tmax Median): 1.32 h | half-life (human, plasma, iv, 3.3 mg/kg, IV infusion 3.3 mg/kg, human plasma, read-out: t1/2 Arithmetic Mean (converted)): 1180 min | half-life (human, plasma, iv, 3.3 mg/kg, IV infusion 3.3 mg/kg, human plasma, read-out: t1/2 GMean (converted)): 1120 min | half-life (human, plasma, iv, 3.3 mg/kg, IV infusion 3.3 mg/kg, human plasma, read-out: t1/2 Median (converted)): 1210 min | AUC(0-t) (human, plasma, iv, 3.3 mg/kg, IV infusion 3.3 mg/kg, read-out: AUClast LS Means): 7810 ng·h/mL | AUC(0-inf) (human, plasma, iv, 3.3 mg/kg, IV infusion 3.3 mg/kg, read-out: AUC∞ LS Means): 7900 ng·h/mL | Cmax (human, plasma, iv, 3.3 mg/kg, IV infusion 3.3 mg/kg, read-out: Cmax LS Means): 1590 ng/mL | Cmax (human, plasma, iv, 3.3 mg/kg, human, 3.3 mg/kg IV infusion, read-out: mean Cmax (arithmetic mean)): 1600 ng/mL | AUC(0-inf) (human, plasma, iv, 3.3 mg/kg, human, 3.3 mg/kg IV, read-out: mean AUC∞): 8070 ng·h/mL | Vd (human, plasma, iv, 3.3 mg/kg, human, IV infusion, read-out: volume of distribution): 11.2 L/kg and 822 L | half-life (human, plasma, other: IV or oral, 3.3 mg/kg, human, read-out: terminal elimination half-life, rapid clearance subset of subjects): 360 to 660 min | half-life (human, plasma, other: oral solution (fed and fasted) and IV infusion, 3.3 mg/kg, human, all 3 treatments, read-out: terminal elimination half-life, majority of subjects): 900 to 1500 min | half-life (human, plasma, other: oral solution (fed and fasted) and IV infusion, 3.3 mg/kg, human, all three treatments, read-out: mean terminal elimination half-life): 960 to 1260 min | Cmax (human, plasma, po, 3.3 mg/kg, human, 3.3 mg/kg oral solution, fasted state, read-out: mean Cmax (arithmetic mean)): 172 ng/mL | Cmax (human, plasma, po, 3.3 mg/kg, human, 3.3 mg/kg oral solution, fed state, read-out: mean Cmax (arithmetic mean)): 592 ng/mL | AUC(0-inf) (human, plasma, po, 3.3 mg/kg, human, 3.3 mg/kg oral, fasted state, read-out: mean AUC∞): 1810 ng·h/mL | AUC(0-inf) (human, plasma, po, 3.3 mg/kg, human, 3.3 mg/kg oral, fed state, read-out: mean AUC∞): 5000 ng·h/mL | bioavailability (human, plasma, po, 3.3 mg/kg, human, 3.3 mg/kg, fasted state (Cmax and AUC based), read-out: oral bioavailability): 5 to 21% | bioavailability (human, plasma, po, 3.3 mg/kg, human, 3.3 mg/kg, fed state (Cmax and AUC based), read-out: oral bioavailability): 19 to 63% | half-life (human, plasma, po, 3.3 mg/kg, human, subject 113, oral fed state, read-out: longest terminal half-life (converted)): 3030 min | half-life (human, plasma, po, 3.3 mg/kg, human, subject 118, oral fasted state, read-out: shortest half-life (converted)): 415 min | bioavailability (human, plasma, po, 3.3 mg/kg, human, read-out: relative bioavailability following oral dosing in the fed state, one subject (105)): 91% | AUC (human, plasma, po, 3.3 mg/kg, oral 3.3 mg/kg fasted state, human plasma, read-out: AUC24 Arithmetic Mean): 1230 ng·h/mL | AUC (human, plasma, po, 3.3 mg/kg, oral 3.3 mg/kg fasted state, human plasma, read-out: AUC24 GMean): 1010 ng·h/mL | AUC (human, plasma, po, 3.3 mg/kg, oral 3.3 mg/kg fasted state, human plasma, read-out: AUC24 Median): 1070 ng·h/mL | AUC (human, plasma, po, 3.3 mg/kg, oral 3.3 mg/kg fasted state, human plasma, read-out: AUC48 Arithmetic Mean): 1620 ng·h/mL | AUC (human, plasma, po, 3.3 mg/kg, oral 3.3 mg/kg fasted state, human plasma, read-out: AUC48 GMean): 1340 ng·h/mL | AUC (human, plasma, po, 3.3 mg/kg, oral 3.3 mg/kg fasted state, human plasma, read-out: AUC48 Median): 1420 ng·h/mL | AUC (human, plasma, po, 3.3 mg/kg, oral 3.3 mg/kg fasted state, human plasma, read-out: AUC72 Arithmetic Mean): 1740 ng·h/mL | AUC (human, plasma, po, 3.3 mg/kg, oral 3.3 mg/kg fasted state, human plasma, read-out: AUC72 GMean): 1430 ng·h/mL | AUC (human, plasma, po, 3.3 mg/kg, oral 3.3 mg/kg fasted state, human plasma, read-out: AUC72 Median): 1530 ng·h/mL | AUC (human, plasma, po, 3.3 mg/kg, oral 3.3 mg/kg fasted state, human plasma, read-out: AUC96 Arithmetic Mean): 1780 ng·h/mL | AUC (human, plasma, po, 3.3 mg/kg, oral 3.3 mg/kg fasted state, human plasma, read-out: AUC96 GMean): 1460 ng·h/mL | AUC (human, plasma, po, 3.3 mg/kg, oral 3.3 mg/kg fasted state, human plasma, read-out: AUC96 Median): 1560 ng·h/mL | AUC(0-t) (human, plasma, po, 3.3 mg/kg, oral 3.3 mg/kg fasted state, human plasma, read-out: AUClast Arithmetic Mean): 1780 ng·h/mL | AUC(0-t) (human, plasma, po, 3.3 mg/kg, oral 3.3 mg/kg fasted state, human plasma, read-out: AUClast GMean): 1460 ng·h/mL | AUC(0-t) (human, plasma, po, 3.3 mg/kg, oral 3.3 mg/kg fasted state, human plasma, read-out: AUClast Median): 1560 ng·h/mL | AUC(0-inf) (human, plasma, po, 3.3 mg/kg, oral 3.3 mg/kg fasted state, human plasma, read-out: AUC∞ Arithmetic Mean): 1810 ng·h/mL | AUC(0-inf) (human, plasma, po, 3.3 mg/kg, oral 3.3 mg/kg fasted state, human plasma, read-out: AUC∞ GMean): 1480 ng·h/mL | AUC(0-inf) (human, plasma, po, 3.3 mg/kg, oral 3.3 mg/kg fasted state, human plasma, read-out: AUC∞ Median): 1590 ng·h/mL | CL/F (human, plasma, po, 3.3 mg/kg, oral 3.3 mg/kg fasted state, human plasma, read-out: CL Median (converted)): 34.5 mL/min/kg | Cmax (human, plasma, po, 3.3 mg/kg, oral 3.3 mg/kg fasted state, human plasma, read-out: Cmax Arithmetic Mean): 172 ng/mL | Cmax (human, plasma, po, 3.3 mg/kg, oral 3.3 mg/kg fasted state, human plasma, read-out: Cmax GMean): 133 ng/mL | Cmax (human, plasma, po, 3.3 mg/kg, oral 3.3 mg/kg fasted state, human plasma, read-out: Cmax Median): 169 ng/mL | Tmax (human, plasma, po, 3.3 mg/kg, oral 3.3 mg/kg fasted state, human plasma, read-out: Tmax Arithmetic Mean): 2.7 h | Tmax (human, plasma, po, 3.3 mg/kg, oral 3.3 mg/kg fasted state, human plasma, read-out: Tmax GMean): 2.42 h
SMILES: Cn1cc(C2=C(c3coc4ccc(F)cc34)C(=O)NC2=O)c2cc3c(cc21)OCO3 [elraglusib, 3-(5-fluorobenzofuran-3-yl)-4-(5-methyl-5H-[1,3]dioxolo[4,5-f]indol-7-yl)-1H-pyrrole-2,5-dione]
